Assay results as given in patent publication EP0531958A1, “6-Aminoquinolones, their synthesis and their use as antibacterial agents” (MEDIOLANUM FARMACEUTICI S.P.A., priority 1991, dated 1993).
Values after ≈ are worked out from the molar mass of the structure shown. Where two headings read alike, the source gives them in different places.

What was measured:
Assay type in all cases: cell-based
[1] = test system: Gram +; assay: MIC test, average over the 5 gram-positive test germs; settings: 24 h
Protocol: (§1) As to the antibacterial activity, there was determined the Least (Minimum) Inhibiting Concentration (MIC), by working according to the following operative conditions.
(§2) There were used suspensions of test germs (5 gram-positive and 15 gram-negative) having a known titre, kept freezed at -80°C and diluted, at the time of use, in peptonized water up to a concentration of 1-2.10⁷ cfu/ml.
(§3) A few mg of the products, according to the invention were weighed sufficient for preparing parent solutions in DMSO + NaOH (1N) containing 2560 µg/ml (64µg/ml/dish). From the thus prepared parent solutions there were prepared 12 serial dilutions (1:2) down to the concentration of 1.25 µg/ml.
(§4) 0.5 ml of the different dilutions of each product were distributed on dishes containing 19.5 ml of agarized medium (TSA), maintained in a fluid state at the temperature of 50°C. After slight stirring, the dishes were made to solidify and dry under hood (laminar flow).
(§5) The MIC tests (Least or "Minimum" Inhibiting Concentration) were performed by using a Steers multiwell inoculator having 36 wells, each containing 200 µl of bacterial suspension.
(§6) After inoculation, the dishes were placed into a thermostat and checked after 24 h of incubation at 35°C.
(§7) The MIC is defined as the lowermost product concentration (µg/ml) inhibiting the visible growth of the microorganisms.

[2] = test system: Acinebacter calcoloaceticus OSMPV 1130; assay: MIC test, agar dilution with Steers multiwell inoculator; settings: TSA dishes, 24 h at 35°C, read-out: Minimum Inhibiting Concentration
Protocol: as §1, §2, §3, §4, §5, §6, §7

[3] = test system: Enterobacter cloacae OMNF 1153; assay: as above; settings: OMNF1153, TSA dishes, 24 h at 35°C, read-out: Minimum Inhibiting Concentration
Protocol: as §1, §2, §3, §4, §5, §6, §7

[4] = test system: Enterobacter cloacae OMNF 1174; assay: as above; settings: OMNF1174, TSA dishes, 24 h at 35°C, read-out: Minimum Inhibiting Concentration
Protocol: as §1, §2, §3, §4, §5, §6, §7

[5] = test system: Escherichia coli 120; assay: as above; settings: TSA dishes, 24 h at 35°C, read-out: Minimum Inhibiting Concentration
Protocol: as §1, §2, §3, §4, §5, §6, §7

[6] = test system: Escherichia coli ATCC 8739; assay: as above; settings: ATCC8739, TSA dishes, 24 h at 35°C, read-out: Minimum Inhibiting Concentration
Protocol: as §1, §2, §3, §4, §5, §6, §7

[7] = test system: Escherichia coli CNUR 1; assay: as above; settings: CNUR1, TSA dishes, 24 h at 35°C, read-out: Minimum Inhibiting Concentration
Protocol: as §1, §2, §3, §4, §5, §6, §7

[8] = test system: Escherichia coli CNUR 8; assay: as above; settings: CNUR8, TSA dishes, 24 h at 35°C, read-out: Minimum Inhibiting Concentration
Protocol: as §1, §2, §3, §4, §5, §6, §7

[9] = test system: Escherichia coli ISF 432; assay: as above; settings: ISF432, TSA dishes, 24 h at 35°C, read-out: Minimum Inhibiting Concentration
Protocol: as §1, §2, §3, §4, §5, §6, §7

[10] = test system: Klebsiella pneumoniae ATCC 10031; assay: as above; settings: ATCC10031, TSA dishes, 24 h at 35°C, read-out: Minimum Inhibiting Concentration
Protocol: as §1, §2, §3, §4, §5, §6, §7

[11] = test system: Proteus vulgaris CNUR 6; assay: as above; settings: CNUR6, TSA dishes, 24 h at 35°C, read-out: Minimum Inhibiting Concentration
Protocol: as §1, §2, §3, §4, §5, §6, §7

[12] = test system: Providencia stuardii CNUR 5; assay: as above; settings: CNUR5, TSA dishes, 24 h at 35°C, read-out: Minimum Inhibiting Concentration
Protocol: as §1, §2, §3, §4, §5, §6, §7

[13] = test system: Pseudomonas aeruginosa ATCC 9027; assay: as above; settings: ATCC9027, TSA dishes, 24 h at 35°C, read-out: Minimum Inhibiting Concentration
Protocol: as §1, §2, §3, §4, §5, §6, §7

[14] = test system: Pseudomonas aeruginosa CNUR 2; assay: as above; settings: CNUR2, TSA dishes, 24 h at 35°C, read-out: Minimum Inhibiting Concentration
Protocol: as §1, §2, §3, §4, §5, §6, §7

[15] = test system: Pseudomonas aeruginosa CNUR 4; assay: as above; settings: CNUR4, TSA dishes, 24 h at 35°C, read-out: Minimum Inhibiting Concentration
Protocol: as §1, §2, §3, §4, §5, §6, §7

[16] = test system: Shighella enteritidis; assay: as above; settings: TSA dishes, 24 h at 35°C, read-out: Minimum Inhibiting Concentration
Protocol: as §1, §2, §3, §4, §5, §6, §7

[17] = test system: Staphylococcus aureus ATCC 6538; assay: as above; settings: ATCC6538, TSA dishes, 24 h at 35°C, read-out: Minimum Inhibiting Concentration
Protocol: as §1, §2, §3, §4, §5, §6, §7

[18] = test system: Staphylococcus aureus MPR 5; assay: as above; settings: MPR5, TSA dishes, 24 h at 35°C, read-out: Minimum Inhibiting Concentration
Protocol: as §1, §2, §3, §4, §5, §6, §7

[19] = test system: Staphylococcus epidermidis CPHL A2; assay: as above; settings: CPHLA2, TSA dishes, 24 h at 35°C, read-out: Minimum Inhibiting Concentration
Protocol: as §1, §2, §3, §4, §5, §6, §7

[20] = test system: Staphylococcus epidermidis HCF Berset C.; assay: as above; settings: TSA dishes, 24 h at 35°C, read-out: Minimum Inhibiting Concentration
Protocol: as §1, §2, §3, §4, §5, §6, §7

[21] = test system: Streptococcus facealis LEP Br.; assay: as above; settings: TSA dishes, 24 h at 35°C, read-out: Minimum Inhibiting Concentration
Protocol: as §1, §2, §3, §4, §5, §6, §7

[22] = test system: Gram -; assay: MIC test, average over the 15 gram-negative test germs; settings: 24 h
Protocol: as §1, §2, §3, §4, §5, §6, §7

[23] = geometrical average of the MIC over the 15 Gram - strains, read-out: Geometrical Average
[24] = mean log of the MIC over the 15 Gram - strains, read-out: Log (converted)
[25] = geometrical average of the MIC over the 5 Gram + strains, read-out: Geometrical Average

Structure (SMILES)	MIC ([1]; read-out: Log (converted))	MIC [2]	MIC [3]	MIC [4]	MIC [5]	MIC [6]	MIC [7]	MIC [8]	MIC [9]	MIC [10]	MIC [11]	MIC [12]	MIC [13]	MIC [14]	MIC [15]	MIC [16]	MIC [17]	MIC [18]	MIC [19]	MIC [20]	also measured
CN1CCN(c2c(N)cc3c(=O)c(C(=O)O)cn(C4CC4)c3c2F)CC1 [Compound 22]	8 µg/mL (≈ 22.2 µM)	8 µg/mL (≈ 22.2 µM)	0.25 µg/mL (≈ 0.694 µM)	0.25 µg/mL (≈ 0.694 µM)	0.06 µg/mL (≈ 0.166 µM)	1 µg/mL (≈ 2.77 µM)	0.12 µg/mL (≈ 0.333 µM)	0.12 µg/mL (≈ 0.333 µM)	0.06 µg/mL (≈ 0.166 µM)	0.06 µg/mL (≈ 0.166 µM)	32 µg/mL (≈ 88.8 µM)	4 µg/mL (≈ 11.1 µM)	2 µg/mL (≈ 5.55 µM)	8 µg/mL (≈ 22.2 µM)	32 µg/mL (≈ 88.8 µM)	0.25 µg/mL (≈ 0.694 µM)	4 µg/mL (≈ 11.1 µM)	4 µg/mL (≈ 11.1 µM)	4 µg/mL (≈ 11.1 µM)	8 µg/mL (≈ 22.2 µM)	MIC [21]: 64 µg/mL (≈ 178 µM); MIC [22, 23]: 0.783 µg/mL (≈ 2.17 µM); MIC [22, 24]: 0.783 µg/mL (≈ 2.17 µM)
Nc1cc2c(=O)c(C(=O)O)cn(C3CC3)c2c(F)c1N1CCSCC1 [Compound 23]	0.759 µg/mL (≈ 2.09 µM)	1 µg/mL (≈ 2.75 µM)	1 µg/mL (≈ 2.75 µM)	1 µg/mL (≈ 2.75 µM)	0.25 µg/mL (≈ 0.688 µM)	0.12 µg/mL (≈ 0.33 µM)	0.5 µg/mL (≈ 1.38 µM)	0.25 µg/mL (≈ 0.688 µM)	0.06 µg/mL (≈ 0.165 µM)	0.03 µg/mL (≈ 0.0826 µM)	64 µg/mL (≈ 176 µM)	0.5 µg/mL (≈ 1.38 µM)	4 µg/mL (≈ 11 µM)	8 µg/mL (≈ 22 µM)	64 µg/mL (≈ 176 µM)	4 µg/mL (≈ 11 µM)	0.5 µg/mL (≈ 1.38 µM)	0.25 µg/mL (≈ 0.688 µM)	0.5 µg/mL (≈ 1.38 µM)	1 µg/mL (≈ 2.75 µM)	MIC [1, 25]: 0.758 µg/mL; MIC [21]: 4 µg/mL (≈ 11 µM); MIC [22, 23]: 1.04 µg/mL (≈ 2.85 µM); MIC [22, 24]: 1.04 µg/mL (≈ 2.85 µM)
CN1CCN(c2c(N)c(N)c3c(=O)c(C(=O)O)cn(C4CC4)c3c2F)CC1 [Compound 28]	3.03 µg/mL (≈ 8.08 µM)	2 µg/mL (≈ 5.33 µM)	0.25 µg/mL (≈ 0.666 µM)	0.12 µg/mL (≈ 0.32 µM)	0.12 µg/mL (≈ 0.32 µM)	0.03 µg/mL (≈ 0.0799 µM)	0.25 µg/mL (≈ 0.666 µM)	0.12 µg/mL (≈ 0.32 µM)	0.03 µg/mL (≈ 0.0799 µM)	0.03 µg/mL (≈ 0.0799 µM)	64 µg/mL (≈ 170 µM)	2 µg/mL (≈ 5.33 µM)	4 µg/mL (≈ 10.7 µM)	8 µg/mL (≈ 21.3 µM)	64 µg/mL (≈ 170 µM)	0.25 µg/mL (≈ 0.666 µM)	2 µg/mL (≈ 5.33 µM)	2 µg/mL (≈ 5.33 µM)	4 µg/mL (≈ 10.7 µM)	4 µg/mL (≈ 10.7 µM)	MIC [1, 25]: 3.03 µg/mL; MIC [21]: 4 µg/mL (≈ 10.7 µM); MIC [22, 23]: 0.592 µg/mL (≈ 1.58 µM); MIC [22, 24]: 0.592 µg/mL (≈ 1.58 µM)
Cc1c(N2CCN(C)CC2)c(N)cc2c(=O)c(C(=O)O)cn(C3CC3)c12 [Compound 33]	1.15 µg/mL (≈ 3.22 µM)	2 µg/mL (≈ 5.61 µM)	0.25 µg/mL (≈ 0.701 µM)	0.06 µg/mL (≈ 0.168 µM)	0.06 µg/mL (≈ 0.168 µM)	0.06 µg/mL (≈ 0.168 µM)	0.06 µg/mL (≈ 0.168 µM)	0.06 µg/mL (≈ 0.168 µM)	0.03 µg/mL (≈ 0.0842 µM)	0.03 µg/mL (≈ 0.0842 µM)	8 µg/mL (≈ 22.4 µM)	2 µg/mL (≈ 5.61 µM)	2 µg/mL (≈ 5.61 µM)	8 µg/mL (≈ 22.4 µM)	16 µg/mL (≈ 44.9 µM)	0.06 µg/mL (≈ 0.168 µM)	0.5 µg/mL (≈ 1.4 µM)	1 µg/mL (≈ 2.81 µM)	1 µg/mL (≈ 2.81 µM)	0.5 µg/mL (≈ 1.4 µM)	MIC [1, 25]: 1.15 µg/mL; MIC [21]: 8 µg/mL (≈ 22.4 µM); MIC [22, 23]: 0.338 µg/mL (≈ 0.948 µM); MIC [22, 24]: 0.338 µg/mL (≈ 0.948 µM)
Cc1c(N2CCNCC2)c(N)cc2c(=O)c(C(=O)O)cn(C3CC3)c12 [Compound 34]	2 µg/mL (≈ 5.84 µM)	4 µg/mL (≈ 11.7 µM)	0.25 µg/mL (≈ 0.73 µM)	0.12 µg/mL (≈ 0.35 µM)	0.12 µg/mL (≈ 0.35 µM)	0.12 µg/mL (≈ 0.35 µM)	0.12 µg/mL (≈ 0.35 µM)	0.06 µg/mL (≈ 0.175 µM)	0.06 µg/mL (≈ 0.175 µM)	0.06 µg/mL (≈ 0.175 µM)	8 µg/mL (≈ 23.4 µM)	2 µg/mL (≈ 5.84 µM)	4 µg/mL (≈ 11.7 µM)	16 µg/mL (≈ 46.7 µM)	16 µg/mL (≈ 46.7 µM)	0.06 µg/mL (≈ 0.175 µM)	1 µg/mL (≈ 2.92 µM)	2 µg/mL (≈ 5.84 µM)	1 µg/mL (≈ 2.92 µM)	2 µg/mL (≈ 5.84 µM)	MIC [1, 25]: 2 µg/mL; MIC [21]: 8 µg/mL (≈ 23.4 µM); MIC [22, 23]: 0.51 µg/mL (≈ 1.49 µM); MIC [22, 24]: 0.513 µg/mL (≈ 1.5 µM)
